In data set [1] the test system is Panc-1 cells. The data set can be described thus: Cell viability with gemcitabine, CellTiter-Glo 2.0, Panc-1 cells. In kind it is cell-based, Human. Particulars: naïve (unedited) Panc-1 cells, 72 hours. Here is the method: Wildtype and transfected Panc-1 cells were plated to 24 well plates (n=5) at 50,000 cells per well and placed in incubator for 24 hours. The cells were then treated with either Gemcitabine (Selleckchem, Cat. S1714) or DMSO (Thermo Fisher, Cat. D12345). Cells treated with Gemcitabine were treated at one of the following concentrations: 0 μM, 2.5 μM, 5 μM, 25 μM while cells treated with DMSO were treated at: 0%, 0.025%, 0.05%, or 0.25%. Cells remained in Gemcitabine or DMSO for 72 hours before being evaluated using CellTiter-Glo 2.0 Cell Viability Assay (Promega, Cat. G9241).
Since our long-term objective is to develop an effective genetic treatment that would augment standard care, we decided to examine the possibility that we could restore sensitivity to gemcitabine by genetic editing of NRF2 in gemcitabine resistant Panc1 cells. We are using gemcitabine as a selection system to determine if gene editing at some level, can help restore tumor cell killing. We established the kill curve of Panc1 unedited cells by gemcitabine under our standard reaction conditions to serve as a baseline. […] Again, after 72 hours, each cell population was exposed to gemcitabine for an additional 72 hours and thereafter cell viability of the treated and untreated cells was measured using the Cell Titer 2.0 viability assay (Promega, Madison, WI, USA). […]
On the technique in general: ATP-based viability assays read luminescence as a measure of living cells.

The test system of data set [2] is NRF2. The data set can be described thus: NRF2 western blot in Panc-1 cells. The settings on record: edited Panc-1 populations vs unedited, GAPDH loading control. In kind it is cell-based, Human. Here is the method: Panc-1 cell pellets were collected using a standard RIPA lysis buffer containing protease inhibitor cocktail. Total protein concentration of collected cells was then determined using BCA Protein Assay kit (Pierce, Rockford, IL, USA). The samples were boiled at 95° C. for 10 minutes and then underwent SDS-PAGE on a 10% Mini-PROTEAN TGX Stain-free Protein Gel (BioRad, Cat. 4568033) for 90 min at 100 V. The gel was then transferred to a nitrocellulose membrane using Trans-Blot Turbo Transfer Systems (BioRad, Hercules, CA, USA) with Trans-Blot Turbo RTA Mini 0.2 μm Nitrocellulose Transfer Kit (BioRad Cat. 1704158), mixed molecular weight program, 10 minutes. The blot was placed in 5% milk and blocked at room temperature on shaker for 2 hours. Incubation in primary NRF2 antibody was done overnight at 4° C. on shaker (1:1,000, Abcam ab62352). Membrane was then incubated at room temperature on shaker for 1 hour in NRF2 secondary (1:10,000, Abcam ab205718). The SuperSignal West Dura Extended Duration ECL (Pierce) kit was used on the LI-COR Odyssey FC to visualize bands. […]
(In general: In western blotting, separated proteins are transferred to a membrane and probed.)

Data on two compounds can be found in patent US20250319206A1, “CRISPR/CAS GENE EDITING OF NEH4 AND/OR NEH5 DOMAINS IN NRF2” (Christina Care Gene Editing Institute, Inc., priority 2024, published 2025).

`Nc1ccn([C@@H]2O[C@H](CO)[C@@H](O)C2(F)F)c(=O)n1` [gemcitabine, reference compound]: the “concentration of drug to achieve 75% killing” value in data set [1] was around 100 µM.

In the case of “sg5: gRNA targeting exon 3 of NRF2; CCTCATTGTCATCTACAAAC GGG (guide CCTCATTGTCATCTACAAACGGG; listed as DNA, chemistry not given here)”, the NRF2 protein knock down entry in data set [2] is recorded as “significant knockdown of protein”.
